Experimental data published in patent US11096891B2, “Hybrid muco-adhesive delivery systems and use thereof” (TECHNION RESEARCH & DEVELOPMENT FOUNDATION LIMITED, priority 2016, dated 2021).

Tests used:
[1] = system: CAL-27 cells; experiment: MTT cell viability assay; type: cell-based, human; settings: 24 and 48 hr
Method: The cytotoxicity of chemotherapeutic drugs to CAL-27 cells was determined using the MTT assay. Cells were plated in 96-well plate in density of 50,000 cells per well in a total volume of 200 μl medium. After 24 hours the cells were treated with different drugs and liposomes for 24 h and 48 h. All experiments were done in quadruplicates.
Cell viability was evaluated by MTT assay, a colorimetric assay based on the ability of viable cells to reduce a soluble yellow MTT substrate to a blue formazan crystal by mitochondrial succinate dehydrogenase activity of viable cells. This test is a good index of mitochondrial activity and thus of cell viability. After 24 or 48 hr of treatment, the medium was aspirated, and 100 μL of MTT, 1 mg/mL in PBS were added to each well. After MTT addition the plates were covered and returned to the incubator at 37° C. for 2 hr, the optimal time for formazan product formation. […] The absorbance was measured at 570 nm and the background absorbance measured at 690 nm.
In exemplary procedures, alginate gels incorporating either empty or doxorubicin loaded liposomes were prepared as described above, in a volume of 100 μL each with liposome proportion of 6.7%, 16.7% and 33.3% (v/v). […] Viability was measured using the MTT assay. […]

[2] = Liposome release from alginate pastes spread on tongue tissue; type: physicochemical; settings: 3% Ca+2-Ba+2 cross-linked alginate paste, simulated saliva buffer pH 6.8, 37° C.
Method: Alginate-fluorescein containing liposomes pastes were prepared by dissolving 30, 40 or 50 mg alginate-fluorescein in 0.4 mL DDW and 0.6 mL of fluorescently labeled liposome solution. The mixtures were stirred until homogenous viscous solutions were achieved. Alginate-fluorescein paste (50 μL) was spread on porcine's tongue tissue (1 cm×1 cm) which was glued with cyanoacrylate glue to a weight and placed in a vail with […] saliva buffer, pH 6.8. One sample (paste on a tissue) was inserted into dialysis bag and the absorbance of this sample was used as a blank. The vail was immersed in a shaking water/ethylene-glycole bath at 37° C. and 25 rpm. An aliquot (200 μL) of eluted liposome medium was removed for quantification; this volume was replaced with fresh buffer. The release of alginate-fluorescein and liposome was quantified by measuring the fluorescence (alginate-fluorescein: λex420 nm, λem530 nm, labeled liposome: λex530 nm, […]) of the release media at different time points.
pastes were prepared by dissolving 40 mg alginate or alginate-SH, or 300 mg alginate-PEGAc.
Alginate paste (50 μL) was spread on a piece of tissue which was glued with cyanoacrylte glue to a weight and placed in a vail with 10 ml 0.01M PBS, pH=6.8. […] An aliquot (200 μL) of eluted liposome medium was removed for quantification; this volume was replaced with fresh buffer. […]

[3] = system: CAL-27 cells; experiment: CellTiter-Glo viability, alginate pastes on permeable tissue culture inserts; type: cell-based, human; settings: alginate paste hybrid system
Method: In order to examine the effectivity of the proposed hybrid system, alginate pastes with empty liposomes, free drug and drugs loaded liposomes were tested for their effect on CAL-27 cells using permeable tissue culture inserts. Cell viability was determined using the Cell Titer-Glo® assay (see Table 6 below showing the relative cell viability obtained after 24 and 48 hr of treatment with hybrid system and FIG. 25).

[4] = Release of fluorescent dye from alginate paste on porcine tongue under shear flow; type: physicochemical; settings: after two hours, 0.01M PBS pH 6.8, 37° C.
From the text: A home-made apparatus was designed, based on a flow cell for assessing the mucoadhesion of pastes and viscous polymer solutions under shear flow conditions. The experiment was set up by mixing viscous solution of alginate with the fluorescent dye solution, by that, the fluorescent dye was non-covalently attached to alginate. The pastes were spread on a slice of porcine tongue simulating the target tissue. The tissue holding the paste was placed in a vial and was subject to shear flow while immersed in PBS solution (see FIG. 1A).

SMILES: O=c1[nH]cc(F)c(=O)[nH]1 [5-FU free drug, 5-fluorouracil]
- Toxicity to cancer cells, drug loaded liposomes versus free drug [1]: slower in action and therefore seemed less efficient within the 48 hr experiment

SMILES: COc1cccc2c1C(=O)c1c(O)c3c(c(O)c1C2=O)C[C@@](O)(C(=O)CO)C[C@@H]3O[C@H]1C[C@H](N)[C@H](O)[C@H](C)O1 [Free Doxorubicin, doxorubicin]
- Release of doxorubicin from cross-linked pastes [2]: similar, and sustained
- Relative cell viability 24 h ([3]; 24 h): 0.04 ± 0.008
- Relative cell viability 48 h ([3]; 48 h): 0.00 ± 0.000

SMILES: CCN(CC)c1ccc2c(-c3ccc(S(=O)(=O)O)cc3S(=O)(=O)[O-])c3ccc(=[N+](CC)CC)cc-3oc2c1 [fluorescent marker, sulforhodamine B]
- Release of fluorescent marker to external PBS solution [4]: completely released
